Measured values as given in BindingDB's records for patent US11773085 (Foghorn Therapeutics, 2023).

Molecular target: T1, Bromodomain-containing protein 9 [133-239] (Homo sapiens, UniProt Q9H8M2)
T1 construct: 133-239
T1 sequence (Q9H8M2 whole entry): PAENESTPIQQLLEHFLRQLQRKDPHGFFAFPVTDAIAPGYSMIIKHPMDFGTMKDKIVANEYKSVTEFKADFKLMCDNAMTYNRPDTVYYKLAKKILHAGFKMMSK
Assay: BRD9 Bromodomain TR-FRET Competition Binding Assay
Protocol: A mixture of biotinylated-ligand and SureLight Allophycocyanin-Streptavidin (APC-SA, PerkinElmer AD0201) in 50 mM HEPES (pH 7.4), 50 mM NaCl, 1 mM TCEP (pH 7), 0.01% (v/v) Tween-20, 0.01% (w/v) bovine serum albumin was added to a white 384-well PerkinElmer Proxiplate Plus plate. DMSO or 3-fold serially diluted compounds were then added to the Proxiplate followed by addition of Flag-BRD9. After a 10 minute incubation at room temperature, Eu-W1024 anti-FLAG (PerkinElmer, AD0273) was added.

| IC50 | Structure (SMILES) |
| --- | --- |
| < 10 nM | CCS(=O)(=O)N(C)Cc1c(OC)cc(-c2cn(C)c(=O)c3cnccc23)cc1OC [US11773085, Compound B35] |
| < 10 nM | COc1cc(-c2cn(C)c(=O)c3cnccc23)cc(OC)c1CN(C)C(=O)CCCCCOc1cccc2c1C(=O)N(C1CCC(=O)NC1=O)C2=O (configuration not stated) [US11773085, Compound D4] |
